This is an account of results in ChEMBL document CHEMBL5528048, “Discovery of Novel Potent and Fast BTK PROTACs for the Treatment of Osteoclasts-Related Inflammatory Diseases” (J Med Chem, 2024).

Active and inactive are the calls of the source. No cut-off for these calls is given here.

The target in experiment [1] is T1, Protein cereblon/Tyrosine-protein kinase BTK (Homo sapiens, UniProt Q06187+Q96SW2). Put plainly: Binding affinity to BTK/CRBN (unknown origin) assessed as ternary complex formation by measuring peak concentration measured after 60 mins incubation by HTRF assay.
Target sequence in this assay (Q06187 2-659 limits assumed): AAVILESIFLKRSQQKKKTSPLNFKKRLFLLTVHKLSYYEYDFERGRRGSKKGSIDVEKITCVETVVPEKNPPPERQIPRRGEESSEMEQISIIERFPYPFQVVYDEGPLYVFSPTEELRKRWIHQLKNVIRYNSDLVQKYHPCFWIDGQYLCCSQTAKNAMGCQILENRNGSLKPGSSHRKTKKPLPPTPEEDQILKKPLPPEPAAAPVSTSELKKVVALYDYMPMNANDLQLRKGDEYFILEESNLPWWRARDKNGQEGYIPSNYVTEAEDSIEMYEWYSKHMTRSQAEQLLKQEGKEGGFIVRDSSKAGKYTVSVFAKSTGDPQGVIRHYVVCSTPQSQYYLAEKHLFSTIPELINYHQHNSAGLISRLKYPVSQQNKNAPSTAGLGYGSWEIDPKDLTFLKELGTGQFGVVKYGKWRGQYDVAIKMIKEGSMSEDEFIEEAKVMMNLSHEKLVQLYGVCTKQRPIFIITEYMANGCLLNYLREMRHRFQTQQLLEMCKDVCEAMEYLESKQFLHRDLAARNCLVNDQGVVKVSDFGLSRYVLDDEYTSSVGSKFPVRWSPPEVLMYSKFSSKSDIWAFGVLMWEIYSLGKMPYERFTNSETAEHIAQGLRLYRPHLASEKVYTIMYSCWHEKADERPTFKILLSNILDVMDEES
Target sequence in this assay (Q96SW2 whole entry partner): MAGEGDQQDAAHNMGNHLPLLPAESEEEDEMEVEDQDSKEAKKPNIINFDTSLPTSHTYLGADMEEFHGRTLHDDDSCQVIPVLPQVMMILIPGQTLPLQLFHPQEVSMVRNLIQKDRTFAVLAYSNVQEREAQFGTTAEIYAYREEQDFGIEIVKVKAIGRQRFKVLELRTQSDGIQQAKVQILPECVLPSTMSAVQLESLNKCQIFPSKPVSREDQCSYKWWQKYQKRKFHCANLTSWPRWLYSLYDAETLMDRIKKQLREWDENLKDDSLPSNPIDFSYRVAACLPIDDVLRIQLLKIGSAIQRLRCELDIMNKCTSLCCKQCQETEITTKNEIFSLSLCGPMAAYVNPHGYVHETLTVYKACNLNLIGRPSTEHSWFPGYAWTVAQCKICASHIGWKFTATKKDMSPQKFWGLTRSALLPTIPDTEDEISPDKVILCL
Experiment [2] concerns the target T1, Protein cereblon/Tyrosine-protein kinase BTK. Put plainly: PROTAC activity at BTK/CRBN in human MINO cells assessed as BTK protein degradation at 100 nM measured after 24 hrs by Western blotting analysis relative to control. The experiment is classed as cell-based. A general note: Immunoblotting shows a protein as a band on a membrane.
Target sequence in this assay (Q06187 2-659 limits assumed): as the sequence (Q06187 2-659 limits assumed) above
Target sequence in this assay (Q96SW2 whole entry partner): as the sequence (Q96SW2 whole entry partner) above
Experiment [3] has the same target. Put plainly: Binding affinity to BTK/CRBN (unknown origin) assessed as ternary complex formation by measuring peak HTRF ratio at wavelength 665/620 nm measured after 60 mins incubation by HTRF assay. Background: In TR-FRET formats the signal depends on donor and acceptor labels being close together.
Target sequence in this assay (Q06187 2-659 limits assumed): as the sequence (Q06187 2-659 limits assumed) above
Target sequence in this assay (Q96SW2 whole entry partner): as the sequence (Q96SW2 whole entry partner) above
Experiment [4] shares this target. Put plainly: Binding affinity to BTK/CRBN (unknown origin) assessed as ternary complex formation measured after 60 mins incubation by HTRF assay.
Target sequence in this assay (Q06187 whole entry): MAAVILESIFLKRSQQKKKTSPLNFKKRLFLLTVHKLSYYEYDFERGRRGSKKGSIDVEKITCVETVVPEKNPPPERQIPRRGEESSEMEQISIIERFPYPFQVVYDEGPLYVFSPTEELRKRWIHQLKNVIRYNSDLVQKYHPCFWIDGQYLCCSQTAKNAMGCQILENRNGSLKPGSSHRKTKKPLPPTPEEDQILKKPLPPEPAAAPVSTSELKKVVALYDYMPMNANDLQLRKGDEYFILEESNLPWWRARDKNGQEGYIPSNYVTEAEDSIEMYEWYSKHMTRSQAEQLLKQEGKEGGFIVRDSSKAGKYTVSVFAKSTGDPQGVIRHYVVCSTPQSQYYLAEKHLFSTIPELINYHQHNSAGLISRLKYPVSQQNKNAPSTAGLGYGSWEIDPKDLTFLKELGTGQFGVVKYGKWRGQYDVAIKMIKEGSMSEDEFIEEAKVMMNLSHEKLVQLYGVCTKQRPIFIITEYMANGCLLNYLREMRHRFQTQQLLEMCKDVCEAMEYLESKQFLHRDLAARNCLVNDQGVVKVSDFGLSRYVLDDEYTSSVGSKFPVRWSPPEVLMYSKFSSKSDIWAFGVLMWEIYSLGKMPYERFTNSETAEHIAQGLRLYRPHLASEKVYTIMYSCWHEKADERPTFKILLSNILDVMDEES
Target sequence in this assay (Q96SW2 whole entry): as the sequence (Q96SW2 whole entry partner) above
The target is the same in experiment [5]. Put plainly: PROTAC activity at BTK/CRBN in human MINO cells assessed as BTK protein degradation measured for 4 hrs by Western blotting analysis. Type of experiment: cell-based.
Target sequence in this assay (Q06187 whole entry): as the sequence (Q06187 whole entry) above
Target sequence in this assay (Q96SW2 whole entry): as the sequence (Q96SW2 whole entry partner) above
For experiment [6], the target named is Protein cereblon (Homo sapiens, UniProt Q96SW2). Put plainly: Inhibition of CRBN (unknown origin) measured after 60 mins incubation by BMG reader.
Sequence of Protein cereblon (Q96SW2 whole entry): as the sequence (Q96SW2 whole entry partner) above
Experiment [7] has as its target T1, Protein cereblon/Tyrosine-protein kinase BTK. Put plainly: PROTAC activity at BTK/CRBN in human MINO cells assessed as BTK protein degradation at 20 nM measured after 24 hrs by Western blotting analysis relative to control. Type of experiment: cell-based.
Target sequence in this assay (Q06187 2-659 limits assumed): as the sequence (Q06187 2-659 limits assumed) above
Target sequence in this assay (Q96SW2 whole entry partner): as the sequence (Q96SW2 whole entry partner) above
Experiment [8] concerns the target T2, Tyrosine-protein kinase BTK (Homo sapiens, UniProt Q06187). In words: Inhibition of BTK (unknown origin) measured after 60 mins incubation by microtiter-plate reader.
The target of experiment [9] is T1, Protein cereblon/Tyrosine-protein kinase BTK. Put plainly: PROTAC activity at BTK/CRBN in human MINO cells assessed as BTK protein degradation at 20 nM by Western blotting analysis. The experiment is classed as cell-based. Conditions: time lower 2.0 hrs, time upper […], TDE = time-dependent effect.
Target sequence in this assay (Q06187 2-659 limits assumed): as the sequence (Q06187 2-659 limits assumed) above
Target sequence in this assay (Q96SW2 whole entry partner): as the sequence (Q96SW2 whole entry partner) above
Experiment [10] shares this target. Put plainly: PROTAC activity at BTK/CRBN in human MINO cells assessed as BTK protein degradation half life at 20 nM by Western blotting analysis. Type of experiment: cell-based.
Target sequence in this assay (Q06187 2-659 limits assumed): as the sequence (Q06187 2-659 limits assumed) above
Target sequence in this assay (Q96SW2 whole entry partner): as the sequence (Q96SW2 whole entry partner) above
Experiment [11] shares this target. In words: PROTAC activity at BTK/CRBN in human MINO cells assessed as BTK protein degradation measured for 24 hrs by Western blotting analysis. Type of experiment: cell-based.
Target sequence in this assay (Q06187 whole entry): as the sequence (Q06187 whole entry) above
Target sequence in this assay (Q96SW2 whole entry): as the sequence (Q96SW2 whole entry partner) above
For experiment [12] the target is unchanged. Put plainly: PROTAC activity at BTK/CRBN in human MINO cells assessed as BTK protein degradation at 20 nM measured after 48 hrs by Western blotting analysis. Type of experiment: cell-based.
Experiment [13] has the same target. In words: PROTAC activity at BTK/CRBN in human MINO cells assessed as BTK protein degradation by measuring onset time activity at 20 nM by Western blotting analysis. The experiment is classed as cell-based.
Experiment [14] concerns the target T2, Tyrosine-protein kinase BTK. In words: Binding affinity to BTK (unknown origin) assessed as inhibition constant measured after 60 mins incubation by microtiter-plate reader.

T2 sequence (Q06187 whole entry): as the sequence (Q06187 whole entry) above

Turning to `Nc1ncnc2c1c(-c1ccc(Oc3ccccc3)cc1)nn2C1CCN(C(=O)CN2CCN(CC3CN(c4ccc5c(c4)C(=O)N(C4CCC(=O)NC4=O)C5=O)C3)CC2)CC1` (centres undefined), the Activity is 37 nM in experiment [1], 99% in experiment [2], 95% in [7] and “Tde” in experiment [9]. In addition, the Ratio in experiment [3] was determined as 13.1. Further, in experiment [4], the concentration giving a half-maximal response (EC50) turned out to be 0.00274 µM. In addition, the half-maximal degradation concentration (DC50) in experiment [5] worked out at 0.0189 µM; in experiment [11] it was 0.00707 µM. The half-maximal inhibitory concentration (IC50) in [6] is 0.285 µM; in experiment [8] it was 0.0955 µM. Moreover, the T1/2 in [10] was determined as 1.51 h. Besides, in experiment [12], the result was Active. Also, the TIME in [13] was below 1 h. The inhibition constant Ki in experiment [14] is 0.0503 µM.

Usually EC50 stands for the concentration needed to bring the measured effect to its halfway point. By DC50 is commonly meant the concentration at which degradation of the target reaches its halfway point. For orientation: IC50 means the concentration at which inhibition is half-maximal. A word on the Ki: it is a measure of affinity in units of concentration, obtained from inhibition or displacement.
